“And” between values parts separate entries of the source, which are not always exact repeats. Equal entries are not always repeated.
Assays:
[1] = mn = molality of the nth substance listed, in mol/kg; conditions: 100 kPa, Liquid; for speed of sound: Frequency=3 MHz, Single path-length method; for mass density: Vibrating tube method
[2] = 100 kPa, Liquid, Frequency=3 MHz, Single path-length method

OCCO [1,2-ethanediol] + O
[1]
Conditions | mass density, m1 = 0.09889 [kg/m3] | mass density, m1 = 0.1989 [kg/m3] | mass density, m1 = 0.2997 [kg/m3] | mass density, m1 = 0.3948 [kg/m3] | mass density, m1 = 0.5016 [kg/m3] | speed of sound, m1 = 0.09889 [m/s] | speed of sound, m1 = 0.1989 [m/s] | speed of sound, m1 = 0.2997 [m/s] | speed of sound, m1 = 0.3948 [m/s] | speed of sound, m1 = 0.5016 [m/s]
293.15 K | 999.059 | 999.884 | 1000.68 | 1001.4 | 1002.2 | 1485.5 | 1488.3 | 1491.2 | 1493.9 | 1496.8
298.15 K | 997.877 | 998.688 | 999.473 | 1000.18 | 1000.96 | 1498.9 | 1501.7 | 1504.3 | 1506.6 | 1509.1
303.15 K | 996.471 | 997.262 | 998.033 | 998.733 | 999.48 | 1511.1 | 1513.8 | 1516.2 | 1518.7 | 1521.2
308.15 K | 994.84 | 995.613 | 996.362 | 997.038 | 997.764 | 1521.8 | 1524 | 1526.2 | 1528.3 | 1530.3

Nc1ccccc1 [aniline] + O
[1]
Conditions | mass density, 293.15 K | mass density, 298.15 K | mass density, 303.15 K | mass density, 308.15 K | speed of sound, 293.15 K [m/s] | speed of sound, 298.15 K [m/s] | speed of sound, 303.15 K [m/s] | speed of sound, 308.15 K
m1 = 0.1 | 998.568 kg/m3 and 998.57 kg/m3 | 997.42 kg/m3 and 997.421 kg/m3 | 995.98 kg/m3 and 995.983 kg/m3 | 994.35 kg/m3 and 994.351 kg/m3 | 1483.3 | 1497.2 | 1509.5 | 1520.5 m/s
m1 = 0.2 | 998.97 kg/m3 and 998.972 kg/m3 | 997.81 kg/m3 and 997.813 kg/m3 | 996.33 kg/m3 and 996.326 kg/m3 | 994.68 kg/m3 and 994.684 kg/m3 | 1485 | 1498.7 | 1510.8 | 1521.9 m/s and 1520.5 m/s
m1 = 0.3 | 999.36 kg/m3 and 999.363 kg/m3 | 998.21 kg/m3 and 998.208 kg/m3 | 996.705 kg/m3 and 996.71 kg/m3 | 995.035 kg/m3 and 995.04 kg/m3 | 1486.8 | 1500 | 1512.1 | 1521.9 m/s and 1523.3 m/s
m1 = 0.4 | 999.783 kg/m3 and 999.78 kg/m3 | 998.592 kg/m3 and 998.59 kg/m3 | 997.079 kg/m3 and 997.08 kg/m3 | 995.385 kg/m3 and 995.39 kg/m3 | 1488.6 | 1502 | 1513.5 | 1523.6 m/s and 1524.7 m/s

OCCOCCO [diethylene glycol] + O
[1]
Conditions | mass density, m1 = 0.09849 [kg/m3] | mass density, m1 = 0.1974 [kg/m3] | mass density, m1 = 0.295 [kg/m3] | mass density, m1 = 0.4101 [kg/m3] | mass density, m1 = 0.5006 [kg/m3] | speed of sound, m1 = 0.09849 [m/s] | speed of sound, m1 = 0.1974 [m/s] | speed of sound, m1 = 0.295 [m/s] | speed of sound, m1 = 0.4101 [m/s] | speed of sound, m1 = 0.5006 [m/s]
293.15 K | 999.647 | 1001.03 | 1002.36 | 1003.86 | 1004.99 | 1487.7 | 1493.1 | 1498.1 | 1504.1 | 1508.3
298.15 K | 998.458 | 999.78 | 1001.03 | 1002.49 | 1003.59 | 1501.2 | 1506 | 1510.8 | 1516.2 | 1520.3
303.15 K | 997.071 | 998.395 | 999.643 | 1001.05 | 1002.15 | 1513.1 | 1517.6 | 1522 | 1526.9 | 1530.6
308.15 K | 995.44 | 996.778 | 998.046 | 999.471 | 1000.53 | 1523.5 | 1527.5 | 1531.5 | 1536.1 | 1539.6

OCCOCCOCCO [triethylene glycol] + O
[1]
Conditions | mass density, m1 = 0.0965 [kg/m3] | mass density, m1 = 0.2002 [kg/m3] | mass density, m1 = 0.292 [kg/m3] | mass density, m1 = 0.3986 [kg/m3] | mass density, m1 = 0.4988 [kg/m3] | speed of sound, m1 = 0.0965 [m/s] | speed of sound, m1 = 0.2002 [m/s] | speed of sound, m1 = 0.292 [m/s] | speed of sound, m1 = 0.3986 [m/s] | speed of sound, m1 = 0.4988 [m/s]
293.15 K | 1000.31 | 1002.46 | 1004.29 | 1006.36 | 1008.22 | 1489.9 | 1498 | 1504.8 | 1513.1 | 1520.5
298.15 K | 999.126 | 1001.27 | 1003.11 | 1005.14 | 1006.99 | 1503.5 | 1511 | 1517.6 | 1525.4 | 1532.2
303.15 K | 997.728 | 999.858 | 1001.67 | 1003.69 | 1005.54 | 1514.8 | 1521.8 | 1528 | 1535.1 | 1541.7
308.15 K | 996.095 | 998.216 | 1000.01 | 1002.02 | 1003.85 | 1525.1 | 1531.3 | 1536.9 | 1543.3 | 1549.4

O [water]
[2]
Conditions | speed of sound [m/s]
293.15 K | 1481.1
298.15 K | 1495.8
308.15 K | 1519.1

— the NIST ThermoML archive (doi:10.1021/acs.jced.8b00058)
